Assays:
[1] = biological target: T1, hDAGL-α (Homo sapiens, UniProt Q9Y4D2); experiment: DAGL-α natural substrate assay (SAG hydrolysis, glycerol based real-time fluorescence assay); type: biochemical; design: expressed in transfected cells; host or cells: HEK293T (transient), membrane preparation; details: for pIC50: n=4
T1 sequence (Q9Y4D2 1-1042): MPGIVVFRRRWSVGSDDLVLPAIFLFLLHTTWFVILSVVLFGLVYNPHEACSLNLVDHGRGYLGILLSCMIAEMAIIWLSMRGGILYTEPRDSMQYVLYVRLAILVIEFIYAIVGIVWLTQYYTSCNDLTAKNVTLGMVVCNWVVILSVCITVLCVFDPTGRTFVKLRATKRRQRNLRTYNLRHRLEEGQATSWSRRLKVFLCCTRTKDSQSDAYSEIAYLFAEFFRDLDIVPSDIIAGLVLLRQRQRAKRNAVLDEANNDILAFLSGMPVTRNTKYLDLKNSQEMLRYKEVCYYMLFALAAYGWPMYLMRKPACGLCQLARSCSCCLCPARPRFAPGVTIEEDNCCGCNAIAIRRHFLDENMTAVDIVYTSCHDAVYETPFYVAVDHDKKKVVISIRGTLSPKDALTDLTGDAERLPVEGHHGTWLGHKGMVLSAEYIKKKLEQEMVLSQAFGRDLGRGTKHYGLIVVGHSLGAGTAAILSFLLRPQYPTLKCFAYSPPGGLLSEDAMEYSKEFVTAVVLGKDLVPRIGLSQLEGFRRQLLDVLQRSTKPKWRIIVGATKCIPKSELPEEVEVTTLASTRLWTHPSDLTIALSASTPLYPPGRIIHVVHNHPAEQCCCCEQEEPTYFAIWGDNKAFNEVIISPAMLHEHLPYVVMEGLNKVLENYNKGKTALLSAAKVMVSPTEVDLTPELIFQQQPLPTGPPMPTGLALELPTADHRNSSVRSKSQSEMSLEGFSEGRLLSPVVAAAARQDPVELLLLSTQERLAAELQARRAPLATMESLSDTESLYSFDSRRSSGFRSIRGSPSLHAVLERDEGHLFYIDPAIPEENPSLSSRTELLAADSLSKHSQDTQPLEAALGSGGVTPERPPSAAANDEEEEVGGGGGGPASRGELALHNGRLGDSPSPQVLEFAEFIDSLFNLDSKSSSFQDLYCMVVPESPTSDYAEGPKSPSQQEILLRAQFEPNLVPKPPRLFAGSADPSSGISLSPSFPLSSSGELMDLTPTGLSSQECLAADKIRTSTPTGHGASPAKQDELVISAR
From the text: To confirm that compound 25 was also able to block conversion of the natural substrate 1-stearoyl-2-arachidonoyl-sn-glycerol of DAGL-α to the endocannabinoid 2-AG, the inventors employed a real-time, fluorescence-based assay. The DAGL-α natural substrate assay is based on the production of 2-AG from 1-stearoyl-2-arachidonoyl-sn-glycerol (SAG) hydrolysis by DAGL-α-overexpressing membrane preparations from transiently transfected HEK293T cells. The 2-AG production is coupled to the oxidation of commercially available Amplifu™Red via a multi-enzyme cascade, resulting in a fluorescent signal from the dye resorufin.
Standard assays were performed in HEMNB buffer (50 mM HEPES pH 7.4, 1 mM EDTA, 5 mM MgCl2, 100 mM NaCl, 0.5% (w/v) BSA) in black, flat clear-bottom 96-wells plates (Greiner). Final protein concentration of membrane preparations from DAGL-α-overexpressing HEK293T cells was 50 µg/mL (10 µg per well). Inhibitors were added from 40x concentrated DMSO stocks. A substrate solution of 1-stearoyl-2-arachidonoyl-sn-glycerol was prepared just prior to use. The SAG stock solution (10 mg/mL in methyl acetate) was dried under argon and subsequently dissolved in 50 mM HEPES buffer (pH 7.0) containing 0.75% (w/v) Triton X-100. The substrate solution was mixed to form an emulsion and stored on ice until use.
DAGL-α-overexpressing membranes were incubated with inhibitor for 20 min. Subsequently, assay mix containing glycerol kinase (GK), glycerol-3-phosphate oxidase (GPO), horseradish peroxidase (HRP), adenosine triphosphate (ATP), monoacylglycerol lipase (MAGL), Amplifu™Red and 1-stearoyl-2-arachidonoyl-sn-glycerol (SAG) was added and fluorescence was measured in 5 min intervals for 60 min on a GENios microplate reader (Tecan, Giessen, The Netherlands).
Standard assay concentrations: 0.2 U/mL GK, GPO and HRP, 0.125 mM ATP, 5 µg/mL MAGL-overexpressing membranes, 10 µM Amplifu™Red, 100 or 150 µM SAG, 5% DMSO, 0.0075% (w/v) Triton X-100 in a total volume of 200 µL.

[2] = system: human PC3 cells; experiment: Lipidomics in PC3 cells; type: cell-based; details: 4h at 37 °C in serum free medium
Description: To test the activity of inventive compound 25 in a human cell line, human PC3 cells (prostate cancer cell line) were used. The protocol for lipodomics in PC3 cells is given below. Before inhibitor treatment, the culture medium was removed and the cells were washed with warm (37 °C) serum free medium (3x). The cells were treated with vehicle (DMSO) or inhibitor for 4h at 37 °C in serum free medium. After 4h of incubation medium was removed and the cells were washed with cold (4°C) DPBS (3x) and subsequently suspended in DPBS and pelleted. The cell pellet metabolome was extracted and by MeOH/CHCl3 extraction and analysed by LCMS/MS of a triple quad mass spectometer (agilent). The concentration of the lipids was determined by comparison with spiked deuterated standards of the lipd species. […] This may indicate that downstream metabolic pathways of 2-AG signaling are also affected and that the biosynthesis of 2-AG is the rate-limiting step.

[3] = natural substrate 1-stearoyl-2-arachidonoyl-sn-glycerol

SMILES | pIC50 [1, 3] | pIC50 ([1]; glycerol based natural substrate assay, figure legend prints nM, unit of the source corrected) | fold increase compared to compound 1 ([1]; natural substrate assay) | 2-AG levels [2] | arachidonic acid levels [2] | substrate levels of DAGL [2]
O=C(CCCCCc1ccccc1)c1nc2ncccc2o1 [Compound 1, 1-(Oxazolo[4,5-b]pyridin-2-yl)-6-phenylhexan-1-one, reference compound] | 6.3 ± 0.1 |  |  |  |  | 
Cc1ccc(-c2cnc3nc(C(=O)CCCCCc4ccccc4)oc3c2)cc1 [Compound 25, 1-(6-(p-Tolyl)oxazolo[4,5-b]pyridin-2-yl)-6-phenylhexan-1-one] | 7.9 ± 0.08 | 7.9 ± 0.08 | 40 fold | reduced 2-AG levels | reduced | no change

From patent EP3095787A1, “[…] ACTIVE COMPOUNDS AS DAG-LIPASE INHIBITORS” (Universiteit Leiden, priority 2015, dated 2016)
